# Experimental data from patent US20100099663A1, “4-TRIFLUOROMETHOXYPHENOXYBENZOL-4'-SULFONIC ACIDS, METHOD FOR THE PRODUCTION AND USE THEREOF IN MEDICAMENTS” (SANOFI-AVENTIS DEUTSCHLAND GMBH, priority 2004, published 2010).
# Tests used:
# [1] = target: T1, catalytic domain of neutrophil collagenase (MMP-8) (Homo sapiens, UniProt P22894); assay: Enzymatic activity of the catalytic domain of neutrophil collagenase (MMP-8), fluorogenic substrate; assay type: biochemical; conditions: pH 7.5, 15 min preincubation, read-out: Matrix metalloproteinase inhibition MMP-8 (IC50)
# T1 construct: Catalytic Domain of Human Stromelysin (MMP-3) and of Neutrophil Collagenase (MMP-8); made in house
# Procedure: (§1) Preparation and Determination of the Enzymatic Activity of the Catalytic Domain of Human Stromelysin (MMP-3) and of Neutrophil Collagenase (MMP-8).
# (§2) The two enzymes stromelysin (MMP-3) and neutrophil collagenase (MMP-8) were prepared by the method of Ye et al. (Biochemistry; 31 (1992) pages 11231-11235). The enzymic activity or the effect of the enzyme inhibitor was measured by incubating 10 μl of enzyme solution with 10 μl of a 3% strength (v/v) buffered dimethyl sulfoxide solution which contained the enzyme inhibitor where appropriate, for 15 minutes. After addition of 10 μl of a 3% strength (v/v) aqueous dimethyl sulfoxide solution which contained 1 mmol/l of the substrate, the enzymic reaction was followed by fluorescence spectroscopy (328 nm (ex)/393 nm(em)).
# (§3) The enzymic activity is presented as increase in extinction/minute. The IC50 values listed in Table 1 were determined as the inhibitor concentrations leading in each case to 50% inhibition of the enzyme.
# (§4) The buffer solution contained 0.05% Brij (Sigma, Deisenhofen, Germany) and 0.1 mol/l of Tris/HCl, 0.1 mol/l of NaCl, 0.01 mol/l of CaCl2 and 0.1 mol/l of piperazine-N,N′-bis[2-ethanesulfonic acid] (pH=7.5).
# (§5) The MMP-3 enzyme solution contained 2.3 μg/ml and the MMP-8 enzyme solution 0.6 μg/ml of one of the enzyme domains prepared by the method of Ye et al. The substrate solution contained 1 mmol/l of the fluorogenic substrate (7-methoxycoumarin-4-yl)acetyl-Pro-Leu-Gly-Leu-3-(2′,4′-dinitrophenyl)-L-2,3-diaminopropionyl-Ala-Arg-NH2 (Bachem, Heidelberg, Germany).
# [2] = target: T2, catalytic domain of human collagenase-3 (MMP-13) (Homo sapiens, UniProt P45452); assay: Enzymatic activity of the catalytic domain of human collagenase-3 (MMP-13), fluorogenic substrate; assay type: biochemical; conditions: APMA-activated proenzyme, pH 7.5, read-out: Matrix metalloproteinase inhibition MMP-13 (IC50)
# T2 construct: Determination of the Enzymatic Activity of the Catalytic Domain of Human Collagenase-3 (MMP-13); purchased INVITEK, Berlin 30 100 803
# Procedure: Determination of the Enzymatic Activity of the Catalytic Domain of Human Collagenase-3 (MMP-13).
# Activation of the proenzyme:
# 2 parts by volume of proenzyme were incubated with 1 part by volume of APMA solution at 37° C. for 1.5 hours. The APMA solution was prepared from a 10 mmol/l p-aminophenylmercuric acetate solution in 0.1 mmol/l NaOH by dilution with 3 parts by volume of Tris/HCl buffer pH 7.5 (see below). The pH was adjusted to between 7.0 and 7.5 by adding 1 mmol/l HCl. After activation of the enzyme it was diluted with the Tris/HCl buffer to a concentration of 1.67 μg/ml.
# The enzymic activity was measured by incubating 10 μl of enzyme solution with 10 μl of a 3% strength (v/v) buffered dimethyl sulfoxide solution (reaction 1) for 15 minutes. The enzyme inhibitor activity was measured by incubating 10 μl of enzyme solution with 10 μl of a 3% strength (v/v) buffered dimethyl sulfoxide solution which contained the enzyme inhibitor (reaction 2).
# The enzymic reaction both in the case of reaction 1 and in the case of reaction 2 was followed after addition of 10 μl of a 3% strength (v/v) aqueous dimethyl sulfoxide solution which contains 0.075 mmol/l of the substrate by fluorescence spectroscopy (328 nm (extinction)/393 nm (emission)).
# The enzymic activity has been presented as increase in extinction/minute. The effect of the inhibitor was calculated as percentage inhibition by the following formula:
# % inhibition=100−[(increase in extinction/minute in reaction 2)/(increase in extinction/minute in reaction 1)×100].
# The IC50, which is the concentration of inhibitor which is necessary for 50% inhibition of the enzymic activity, was determined graphically by plotting the percentage inhibitions at various inhibitor concentrations.
# The buffer solution contained 0.05% Brij (Sigma, Deisenhofen, Germany) and 0.1 mol/l of Tris/HCl, 0.1 mol/l of NaCl, 0.01 mol/l of CaCl2 (pH=7.5).
# The enzyme solution contained 1.67 μg/ml of the enzyme domain. The substrate solution contained 0.075 mmol/l of the fluorogenic substrate (7-methoxycoumarin-4-yl)acetyl-Pro-Leu-Gly-Leu-3-(2′,4′-dinitrophenyl)-L-2,3-diaminopropionyl-Ala-Arg-NH2 (Bachem, Heidelberg, Germany).
# [3] = target: T3, catalytic domain of human stromelysin (MMP-3) (Homo sapiens, UniProt P08254); assay: Enzymatic activity of the catalytic domain of human stromelysin (MMP-3), fluorogenic substrate; assay type: biochemical; conditions: pH 7.5, 15 min preincubation, read-out: Matrix metalloproteinase inhibition MMP-3 (IC50)
# T3 construct: Enzymatic Activity of the Catalytic Domain of Human Stromelysin (MMP-3); made in house
# Procedure: as §1, §2, §3, §4, §5
# [4] = Pharmacokinetic measurements in mice after oral administration (n-in-one study); assay type: in vivo; conditions: male C57/BL mice, oral by gavage about 7.5 mg per kg in PEG400/water 1:1, n-in-one, plasma
# Procedure: In each case 14 or 16 male C57/BL mice with an average weight of 20 to 28 g were used for the investigation, and divided into two groups. The animals had free access to feed and water. The substances were dissolved in PEG400/water 1:1 and administered orally by gavage in a concentration of about 7.5 mg per kg (equivalent to about […] per animal). In each case, 2 novel compounds and one comparative compound were previously dissolved separately, mixed and administered simultaneously (n-in-one study). Blood samples were taken after 0.25, 0.5, 1, 2, 4, 6, 8 and 24 h, and the substance concentration was determined quantitatively by HPLC-MS under standardized conditions as described below. The individual results were initially combined within the two groups and then the average was formed therefrom. The pharmacokinetic parameters are calculated using the noncompartmental model (extravascular input).
# Quantification took place by HPLC-MS-MS. An HPLC system from Agilent (1100) was used, coupled to a PE-Sciex API 4000 (triple quadruple mass spectrometer). The column used was a ProdigyR 5μ ODS, flow rate […], injected volumes 16 μl. Eluent: acetonitrile-0.002% ammonium formate. Detection took place in MS/MS mode (multiple reaction monitoring) focussed on Q1 and selective masses (fragment) filtration on Q3.
# Workup of the plasma samples beforehand took place as follows: admixture of 25 μl of 60/40 acetonitrile/0.1% formate plus 25 μl of internal standard 5 μg/ml in the same solvent, plus 25 μl of blank plasma or sample plasma, plus 200 μl of acetonitrile. Mixing for 5 min was followed by centrifugation (3 min, 5000 g) and then pipetting of 200 μl into the measurement vessels.
# Cmax is the maximum plasma concentration reached at one of the sampling times. AUC “area under the curve”, time course of the decrease in concentration and Cmax determine the magnitude of the value.
# T1 sequence (P22894 100-262 limits assumed): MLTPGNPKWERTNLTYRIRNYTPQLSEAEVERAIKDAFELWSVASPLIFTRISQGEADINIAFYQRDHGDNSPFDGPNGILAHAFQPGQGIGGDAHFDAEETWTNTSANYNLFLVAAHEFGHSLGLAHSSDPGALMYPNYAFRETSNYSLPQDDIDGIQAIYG
# T3 sequence (P08254 100-272 limits assumed): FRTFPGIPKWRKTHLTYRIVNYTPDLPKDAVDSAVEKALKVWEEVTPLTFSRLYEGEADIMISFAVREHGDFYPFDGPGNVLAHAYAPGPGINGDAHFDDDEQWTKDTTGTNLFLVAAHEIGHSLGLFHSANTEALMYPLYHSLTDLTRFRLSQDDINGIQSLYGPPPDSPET
Compound,IC50 [1] [nM],IC50 [2] [nM],IC50 [3] [nM],AUC [4] [ng·h/mL],Cmax [4] [ng/mL],t½ [4] [h]
"O=C(NO)C1C2CCCCC2CCCN1S(=O)(=O)c1ccc(Oc2ccc(OC(F)(F)F)cc2)cc1 (stereo not drawn) [Example 7, 2-[4-(4-Trifluoromethoxyphenoxy)benzenesulfonyl]decahydrobenzo[c]azepine-1-(N-hydroxy)carboxamide]",4,2,24,,,
"O=C(NO)C1C2CCCCC2CCN1S(=O)(=O)c1ccc(Oc2ccc(OC(F)(F)F)cc2)cc1 (stereo not drawn) [Example 4, 2-[4-(4-Trifluoromethoxyphenoxy)benzenesulfonyl]decahydroisoquinoline-1-(N-hydroxy)carboxamide]",14,4,69,,,
"COc1ccc(Oc2ccc(S(=O)(=O)N3CCc4ccccc4C3C(=O)NO)cc2)cc1 (stereo not drawn) [Example 9, 2-[4-(4-Methoxyphenoxy)benzenesulfonyl]-1,2,3,4-tetrahydroisoquinoline-1-N-hydroxycarboxamide, reference compound]",2.3,2.2,23,250,450,1.5
"5-[4-(4-Trifluoromethoxyphenoxy)benzenesulfonyl]octahydrofuro[3,2-c]pyridine-4-carboxylic acid [Example 5]",210,240,380,,,
"O=C(NO)C1c2ccccc2CCN1S(=O)(=O)c1ccc(Oc2ccc(OC(F)(F)F)cc2)cc1 (stereo not drawn) [Example 3, 2-[4-[4-Trifluoromethoxyphenoxy)benzenesulfonyl]-1,2,3,4-tetrahydroisoquinoline-1-(N-hydroxy)carboxamide]",3.6,2,28,2230,1350,6.6
"O=C(NO)C1C2CCOC2CCN1S(=O)(=O)c1ccc(Oc2ccc(OC(F)(F)F)cc2)cc1 (stereo not drawn) [Example 6, 5-[4-(4-Trifluoromethoxyphenoxy)benzenesulfonyl]octahydrofuro[3,2-c]pyridine-4-(N-hydroxy)carboxamide]",4,2,24,,,
"O=C(O)C1c2ccccc2CCN1S(=O)(=O)c1ccc(Oc2ccc(OC(F)(F)F)cc2)cc1 (stereo not drawn) [Example 10, 2-[4-(4-Trifluorophenoxy)benzenesulfonyl]-1,2,3,4-tetrahydroisoquinoline-1-carboxylic acid]",,,,160,240,1.8
